Test results reported in patent US8784911B2, “Compositions for treatment and prevention of diabetic complications using Osteomeles schwerinae” (Korea Institute of Oriental Medicine, priority 2009, dated 2014).
Read-outs that look alike come from different tables or passages of the source. Values belong to the compound of their own block, whether it stands above or below them.

Experiments:
[1] = test system: advanced glycation endproduct generation (bovine serum albumin with fructose and glucose); test: In vitro inhibitory effect on advanced glycation endproduct generation (BSA + fructose/glucose, fluorescence); assay type: biochemical
Procedure: Inhibitory effect of Osteomeles schwerinae small twig/leaf extract, fractions thereof obtained from each of hexane layer, ethyl acetate layer, butanol layer and water layer of the extract, and Osteomeles schwerinae seed extract on advanced glycation endproduct generation was investigated in vitro. Bovine serum albumin (BSA, Sigma, USA) was used as a protein source. BSA was added to 50 mM phosphate buffer (pH 7.4) at the concentration of 10 mg/ml. As a sugar source, the mixed solution of 0.2 M fructose and 0.2 M glucose was used. The mixed solution of fructose and glucose was added to the BSA solution. Osteomeles schwerinae small twig/leaf extract was prepared at different concentrations of 5 μg/ml, 10 μg/ml and 25 μg/ml. Hexane layer was also prepared at the concentrations of 10 μg/ml, 25 μg/ml and 50 μg/ml. Ethyl acetate layer was prepared at different concentrations of 5 μg/ml, 10 μg/ml and 25 μg/ml. Butanol layer and water layer were respectively prepared at the concentrations of 2.5 μg/ml, 5 μg/ml and 10 μg/ml. Osteomeles schwerinae seed extract was also prepared at different concentrations of 5 μg/ml, 10 μg/ml and 25 μg/ml. (All of those compounds were dissolved in DMSO, to which 15% tween 80 was added. At this time, the content of DMSO was 0.2%). Each extract or fraction was mixed with the mixed solution of BSA and sugars, followed by culture at 37° C. for 14 or 28 days. At this time, 0.02% sodium azide and antimycotics were added thereto as the antibacterial and antifungal agent. For the control, the mixed solution of BSA and sugars was cultured. The blank groups of each experimental and the control were composed as the above but not cultured. For the positive control, which would be used as an index for the comparison of the effect, aminoguanidine was used. To avoid error, 4 of each culture solution were prepared. 14 or 28 days later, the content of advanced glycation endproducts generated in each culture solution was measured and compared. AGEs therein were fluorescent and brown colored. They have physiochemical properties for the cross-linking and also have ligand that can be recognized by cell membrane receptor. The amount of AGEs having the said properties was measured with microplate reader (Excitation: 350 nm, Emission: 450 nm) to analyze the inhibitory effect on the generation of AGEs (Vinson, J. A. et al., J. Nutr. Biochem., 7: 659-663, 1996).
Inhibitory rate of generation was calculated by the following formula. Inhibitory rate of generation(%)=100−(fluorescence intensity of experimental group sample−fluorescence intensity of empty sample)/(fluorescence intensity of control group sample−fluorescence intensity of control group empty sample)×100
Aminoguanidine was dissolved in distilled water and then cultured at the concentrations of 37 μg/ml, 55.5 μg/ml and 74 μg/ml at 37° C. for 14 days and also cultured at the concentrations of 18.5 μg/ml, 37.0 μg/ml and 92.5 μg/ml for 28 days by the same manner as described above. The amount of advanced glycation endproducts generated in each culture solution was measured with microplate reader (Excitation: 350 nm, Emission: 450 nm). Inhibitory effect of Osteomeles schwerinae small twig/leaf extract, its fractions and Osteomeles schwerinae seed extract on advanced glycation endproduct generation was measured in vitro by the same manner as described above and the results are shown in Table 2.

aldose reductase = target: T1, aldose reductase (Rattus norvegicus, UniProt P07943); test: In vitro inhibitory effect on aldose reductase activity; assay type: biochemical, SD rat; settings: for inhibition of aldose reductase activity: compounds isolated from Osteomeles schwerinae extract
T1 construct: To obtain natural aldose reductase from eyeballs of SD rat; from tissue; host or cells: lens of Sprague-Dawley rat (homogenate supernatant)
Procedure: To obtain natural aldose reductase from eyeballs of SD rat (Sprague-Dawley rat, 250-280 g) by the method of Dufrane (1984), the extracted lens were pulverized together with 135 mM Na, K-phosphate buffer (pH 7.0), and 10 mm 2-mercaptoethanol using homogenizer and sonicater. After performing centrifugation at 14000 rpm for 30 minutes, the supernatant was filtered with 0.2 μm filter at 4° C. Quantification was performed by Lowry method using BSA as a protein source of enzyme. The mixture of 135 mM Na, K-phosphate buffer (pH 7.0), 100 mM lithium sulfate, 0.03 mM NADPH, 0.04 mM DL-glyceraldehyde and 100 μg/ml enzyme was dissolved in 0.1% DMSO, which was added to 50 μl of each sample diluted at different concentrations. Total volume of the mixture was adjusted to 1 ml, followed by reaction at 37° C. for 10 minutes. […] The reaction was terminated by adding 0.3 ml of 0.5 N HCl, to which 1 in of 6 M NaOH supplemented with 10 mM imidazole wad added, followed by reaction at 60° C. for 10 minutes. Then, conversion rate (NADP fluorescent product) was measured. Each sample was tested in triplicate. Inhibition effect was measured by using spectrofluorophotometric detector (Ex. 360 nm, Em. 460 nm, Bio-TEK, Synergy HT, USA) and the results were presented as IC50.

[2] = test system: type I diabetes animal model induced by streptozotocin (STZ); test: Type I diabetes animal model induced by streptozotocin; assay type: in vivo, SD rat
Procedure: Fully adapted (for 1 week) SD rats (6 weeks, 180-200 g) were used. After adaptation, the rats were fasted for 16 hours. Before the administration of samples, streptozotocin dissolved in 0.1 M citrate buffer (pH 4.5) was treated once by peritoneal injection (60 mg/kg). A week after the peritoneal injection, blood glucose level was measured at fasted or non-fasted state. Rats showing blood glucose level of at least 250 mg/dl at fasted state were selected and distributed fairly with considering the average. 5 groups were prepared as follows: the normal group treated with nothing (presented as Nor), the normal group treated with 200 mg/kg of Osteomeles schwerinae extract (presented as N+OS-141), the group induced with diabetes (presented as DM), the diabetes group treated with 100 mg/kg of Osteomeles schwerinae extract (presented as OS-100), and the positive control group treated with aminoguanidine (presented as AG). Osteomeles schwerinae extract and aminoguanidine were dissolved in water, which were administered orally to the rats every day (5 ml/kg) for 8 weeks. 8 weeks later, the animals were fasted, followed by autopsy. Blood was drawn from saphenons vein. Plasma was separated by centrifuging the whole blood at 3000 rpm at 4° C. The plasma was stored at −70° C. for the later use for data analysis. Each organ was weighed and frozen by using liquid nitrogen, which was stored at 70° C.
Urine was taken for 24 hours on the last week before autopsy to comparatively observe renal function indices and oxidative stress factors. ELISA was performed to measure AGEs and podocyte (synaptopodin). Urine was mixed with coating buffer (50 mM carbonate buffer, pH 9.6) at the ratio of 1:2, which was distributed in 96 well plate (100 μl/well). After incubating the plate at 37° C. for 3 hours, the plate was washed with 0.05% PBST three times, and blocked with 3% skim milk. The plate was stood for one hour and then washed. AGEs (Transgenic, Japan) and synaptopodin (Santa Cruz, USA) antibody were diluted at the ratio of 1:1000 respectively, followed by loading in each well of the plate by 100 μl, which stood at 37° C. for 2 hours. After washing the plate with 0.05% PBST, HRP-conjugated 2nd antibody was loaded in each well of the plate by 100 μl, which stood at 37° C. for 1 hour. 3,3′,5,5′-tetramethylbenzidine (TMB) was added in each well of the plate by 100 μl. Five minutes later, reaction termination solution (1M H2SO4) was added in each well of the plate by 100 μl and then OD was measured with ELISA reader. Albuminuria and creatinine (Cr) used as renal function indices were measured.
Kidney was extracted during autopsy, which was fixed in 10% neutralized formalin, followed by dehydration. The kidney was substituted with xylene three times, followed by embedding with paraffin. The embedded tissue block was cut into 4 μm sections, which were placed on microscope slide. PAS staining was performed to observe morphological changes. The stained slide was observed under optical microscope. […] To investigate fibrosis by collagen infiltrated in kidney cortex, Masson's trichrome staining was performed. Multiple numbers of collagen stained as blue by Masson's trichrome were observed around glomerular, basement membrane and in interstitial area between renal tubules in the diabetes group, but the difference was not significant from that of the normal group. […] Histological changes were traced 8 weeks after inducing diabetes. […]

[3] = 24 h urine, last week, vs diabetes group
[4] = STZ diabetic rats, 100 mg/kg oral daily, 8 weeks

inhibition at 3.72 µg/mL (aldose reductase; 3.72 μg/ml (20 μm)): 39.3 ± 4.17% | inhibition at 4.66 µg/mL (aldose reductase; 4.66 μg/ml (25 μm)): 55.7 ± 3.25% | inhibition at 5.59 µg/mL (aldose reductase; 5.59 μg/ml (30 μm)): 60.3 ± 1.39% | IC50 (aldose reductase; read-out: inhibitory effect (IC50) on aldose reductase): 24.1 µM | IC50 (aldose reductase; read-out: inhibitory effect (IC50, μg/ml) on aldose reductase (converted)): 24.2 µM
Compound: O=C(O)CC1(CC(=O)O)CCCC1 [3,3-tetramethyleneglutaric acid]

inhibitory effect (IC50, μg/ml) ([1]; 14 day): 71.13 µg/mL | Inhibitory effect (%) ([1]; 14 day, 37 μg/ml): 27.42 ± 1.51% | Inhibitory effect (%) ([1]; 14 day, 55.5 μg/ml): 39.96 ± 0.90% | Inhibitory effect (%) ([1]; 14 day, 74 μg/ml): 51.77 ± 1.91% | inhibitory effect (IC50, μg/ml) ([1]; 28 day): 91.30 µg/mL | Inhibitory effect (%) ([1]; 28 day, 18.5 μg/ml): 14.89 ± 4.11% | Inhibitory effect (%) ([1]; 28 day, 37.0 μg/ml): 24.93 ± 3.46% | Inhibitory effect (%) ([1]; 28 day, 92.5 μg/ml): 50.41 ± 0.41%
Compound: N=C(N)NN [Aminoguanidine]
expressions of AGEs and RAGE in kidney ([2]; 100 mg/kg): significantly reduced | podocyte loss in glomerulus, synaptopodin and WT1 staining ([2]; 100 mg/kg, vs diabetes group): podocyte loss was reduced | fibrosis by collagen in kidney cortex, Masson's trichrome staining ([2]; 8 weeks): such change was not peculiar | glomerular basement membrane thickening, PAS staining ([2]; 8 weeks, vs untreated diabetes group): any change in glomerular basement membrane thickening was not observed | Albuminuria [2, 3]: decreased significantly | Urine alb/Cr [2, 3]: decreased | Body weight (g) Initial ([2]; STZ diabetic rats, 100 mg/kg): 244.3 ± 4.02 g | ALT (U/L) [2, 4]: 158.9 ± 26.25 U/L | AST (U/L) [2, 4]: 341.6 ± 70.90 U/L | Body weight (g) Final [2, 4]: 210.3 ± 9.98 g | 8-OHdG in kidney ([2]; vs diabetes group): reduced in the group treated with AG, but the decrease was not that significant

inhibition of aldose reductase activity (aldose reductase): confirmed to inhibit
Compound: CC(=O)OC1C(c2c(O)cc(O)c3c(=O)cc(-c4ccc(O)cc4)oc23)OC(CO)C(O)C1O (centres unmarked) [2-O-acetylvitexin]
inhibition of advanced glycation endproduct generation ([1]; compounds isolated from Osteomeles schwerinae extract): confirmed to inhibit

Second part, the compound before the results:

Compound: Oc1cc(O)c2c(c1)O[C@H](c1ccc(O)c(O)c1)[C@H](O)C2 [(−)-epicatechin]
inhibition of advanced glycation endproduct generation [1]: confirmed to inhibit | inhibition of aldose reductase activity (aldose reductase): confirmed to inhibit

Compound: C=C(C)C1CCC2(C(=O)O)CCC3(C)C(CCC4C5(C)CCC(OC(=O)C=Cc6ccc(O)c(O)c6)C(C)(C)C5CCC43C)C12 (stereo not drawn) [betulinic acid-3β-yl-caffeate]
inhibition of advanced glycation endproduct generation [1]: confirmed to inhibit | inhibition of aldose reductase activity (aldose reductase): confirmed to inhibit

Compound: C=C(C)C1CCC2(CO)CCC3(C)C(CCC4C5(C)CCC(OC(=O)C=Cc6ccc(O)c(O)c6)C(C)(C)C5CCC43C)C12 (stereo not drawn) [betuline-3β-yl-caffeate]
inhibition of advanced glycation endproduct generation [1]: confirmed to inhibit | inhibition of aldose reductase activity (aldose reductase): confirmed to inhibit
